Data published in publication PMC7470115, “Design, synthesis and biological evaluation of novel tetrahydrothieno [2,3-c]pyridine substitued benzoyl thiourea derivatives as PAK1 inhibitors in triple negative breast cancer” (Journal of Enzyme Inhibition and Medicinal Chemistry, 2020).
Read-outs that look alike come from different tables or passages of the source. One block for each compound: values may come before it.

What was measured:
PAK1 [1] = molecular target: T1, PAK1 (Homo sapiens, UniProt Q13153); test: PAK1 enzymatic assay (Kinase-Glo Plus / ADP-Glo luminescence); format: biochemical
T1 sequence (Q13153 whole entry): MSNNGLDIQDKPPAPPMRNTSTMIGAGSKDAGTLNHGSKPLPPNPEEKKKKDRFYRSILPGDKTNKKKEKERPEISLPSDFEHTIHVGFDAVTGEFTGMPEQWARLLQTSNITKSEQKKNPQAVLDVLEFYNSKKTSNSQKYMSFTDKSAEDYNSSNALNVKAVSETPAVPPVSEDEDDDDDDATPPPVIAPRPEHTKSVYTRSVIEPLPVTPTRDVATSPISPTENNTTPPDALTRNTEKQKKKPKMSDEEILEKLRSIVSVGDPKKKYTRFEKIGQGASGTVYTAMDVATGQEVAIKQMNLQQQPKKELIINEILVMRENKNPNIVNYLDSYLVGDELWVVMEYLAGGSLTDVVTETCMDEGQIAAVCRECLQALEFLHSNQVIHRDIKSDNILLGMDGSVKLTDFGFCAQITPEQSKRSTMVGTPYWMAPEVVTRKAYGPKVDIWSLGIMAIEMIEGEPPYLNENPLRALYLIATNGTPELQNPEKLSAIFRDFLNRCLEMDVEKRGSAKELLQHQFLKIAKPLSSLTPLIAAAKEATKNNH
Description: These assays were carried out as described previously. All of the enzymatic reactions were conducted at 30 °C for 40 min. The 50 µl reaction mixture contains 40 mM Tris, pH 7.4, 10 mM MgCl2, 0.1 mg/ml BSA, 1 mM DTT, 50 µM ATP, 0.2 μg/ml PAK1 and 100 uM lipid substrate. The compounds were diluted in 10% DMSO and 5 µl of the dilution was added to a 50 µl reaction so that the final concentration of DMSO is 1% in all of the reactions. The assay was performed using the Kinase-Glo Plus luminescence kinase assay kit and ADP-Glo Plus luminescence kinase assay kit. It measures kinase activity by quantitating the amount of ATP remaining in solution following a kinase reaction. The luminescent signal from the assay is correlated with the amount of ATP present and is inversely correlated with the amount of kinase activity. The IC50 values were calculated using nonlinear regression with normalised dose − response fit using Prism GraphPad software.

MDA-MB-231 cells [2] = test: Cell cycle assay (PI staining, flow cytometry); format: cell-based; conditions: 2.5, 5, 10 μM, 48 h
Description: For cell cycle detection, MDA-MB-231 cells were treated with 2.5, 5, 10 μM 7j for 48 h and then ethyl alcohol-fixed at 4 °C for 24 h. Then the cell cycle distribution were determined by flow cytometry analysis of PI staining.

MDA-MB-231 cells [3] = test: Colony formation assay; format: cell-based
MAPK-JNK pathway = test: Western blot of MAPK-JNK pathway in MDA-MB-231 cells; format: cell-based; conditions: 2.5, 5, 10 µM, 48 h western blot
Description: (§1) Cells were treated with 7j for indicated times. Both adherent and floating cells were collected. Western blot analysis was carried out. Briefly, the cell pellets were resuspended with lysis buffer consisting of Hepes 50 mM pH 7.4, Triton-X-100 1%, sodium orthovanada 2 mM, sodium fluoride 100 mM, edetic acid 1 mM, PMSF 1 mM, aprotinin (Sigma, MO, USA) 10 mg/L and leupeptin (Sigma) 10 mg/L and lysed at 4 °C for 1 h. After 12,000 rpm centrifugation for 15 min, the protein content of supernatant was determined by the Bio- Rad DC protein assay (Bio-Rad Laboratories, Hercules, CA, USA). Equal amounts of the total protein were separated by 10–15% SDS-PAGE and transferred to PVDF membranes, the membranes were soaked in blocking buffer (5% skimmed milk or BSA). Proteins were detected using primary antibodies, followed by HRP-conjugated secondary antibody and visualised by using ECL as the HRP substrate. Quantification of immunoblot was performed by Quantity One 4.4.

MDA-MB-231 cells [4] = test: Cell viability assay (MTT); format: cell-based; conditions: for IC50: MTT
Description: (§2) MDA-MB-231 were purchased from American Type Culture Collection (ATCC, Manassas, VA, USA). Cells were cultured in DMEM with 10% foetal bovine serum and incubated with 5% CO2. Antibodies used in this study were as follows: cdc25c (4688, CST), pcdc2^Tyr[15] (4539, CST), cyclinB1 (4135, CST), PAK1 (ab223849, CST), p-PAK1^Ser199 (ab192814, abcam), JNK (9252, CST), p-JNK (9255, CST), c-Jun (9165, CST), p-c-Jun (3270, CST), p-c-Raf^Ser259(9421, CST), p-MEK ^Ser217/221 (9154, CST), p-ERK ^Thr202/Tyr204 (9101, CST), β-actin (3700, CST). MTT (M2128) was purchased from Sigma- Aldrich (St. Louis, MO, USA).
Cells were dispensed in 96-well plates at a density of 5 × 10^4 cells/ml. After 24 h or 48 h incubation, cells were treated with different concentrations of compounds for the indicated time periods. Cell viability was measured by the MTT assay.

PAK1 [5] = molecular target: T1, PAK1; test: Western blot of PAK1 and p-PAK1 Ser199 in MDA-MB-231 cells; format: cell-based; conditions: 48 h
Description: as §2, §1

cdc25c/cdc2 pathway = test: Immunofluorescence and western blot of cdc25c/cdc2 pathway in MDA-MB-231 cells; format: cell-based
Description: (§3) For immunofluorescence staining, non-specific antibody binding was blocked by incubating with PBS containing 1.5% goat serum. The MDA-MB-231 cells were sequentially incubated, starting with p-cdc2^Tyr[15] antibody (1:200), p-ERK1/2 ^Thr202/Tyr204 antibody (1:200) diluted in PBS containing 1% BSA incubated overnight at 4 °C, followed by addition of fluorescent-labelled secondary antibodies for 1 h at room temperature.
as §1
Cells were transfected with PAK1 (6361, CST) and negative control (6568, CST) siRNAs at 100 nM final concentration using Lipofectamine RNAiMAX/Lip3000 reagent (Invitrogen) according to the manufacturer’s instructions. The transfected cells were used for subsequent experiments 48 h later.

MAPK-ERK pathway = test: Immunofluorescence and western blot of MAPK-ERK pathway in MDA-MB-231 cells; format: cell-based
Description: as §3, §1

PAK1 [6] = molecular target: T1, PAK1; test: Cellular thermal shift assay (CETSA); format: cell-based; conditions: 10 μM, 24 h; 48, 52, 56 °C
Description: The ability of 7j to interact with and stabilise PAK1 protein in intact cells, was analysed as described before. Briefly, cells cultured in 100 × 20 mm tissue culture dishes at 90% confluence were treated with media containing DMSO or 7j (10 μM) for 24 h. After that cells were detached with trypsin and re-suspended in PBS. The cell suspension was heated for 3 min to 48, 52, and 56 °C. Subsequently, cells were lysed using liquid nitrogen and two repeated cycles of freeze-thaw. Precipitated proteins were separated from the soluble fraction by centrifugation at 17,000 g for 20 min. Soluble proteins, collected in the supernatant, were kept at −80 °C until Western blot analysis.

[7] = tested in triplicate, mean ± SD, 50 µM ATP, read-out: Kinase inhibitory activity (IC50, μM) PAK1
[8] = 2.5, 5, 10 µM, 48 h western blot

Structure (SMILES): NC(=O)c1c(NC(=S)NC(=O)c2cccc(C(F)(F)F)c2)sc2c1CCN(C(=O)c1ccccc1Cl)C2 [Compound 7c, 6–(2-chlorobenzoyl)-2–(3-(3-(trifluoromethyl)benzoyl)thioureido)-4,5,6,7-tetrahydrothieno[2,3-c]pyridine-3-carboxamide]
IC50 (PAK1 [1]; [7]): 9.37 ± 1.03 µM | melting point: 166 to 169 °C

Structure (SMILES): CC(C)(C)OC(=O)N1CCc2c(sc(NC(=S)NC(=O)c3ccccc3Cl)c2C(N)=O)C1 [Compound 5k, Tert-butyl-3-carbamoyl-2–(3-(2-chlorobenzoyl)thioureido)-4,7-dihydrothieno[2,3-c]pyridine-6(5H)-carboxylate]
IC50 (PAK1 [1]; [7]): 8.65 ± 0.93 µM

Structure (SMILES): Cc1ccccc1C(=O)N1CCc2c(sc(NC(=S)NC(=O)c3cccc(C(F)(F)F)c3)c2C(N)=O)C1 [Compound 7a, 6–(2-methylbenzoyl)-2–(3-(3-(trifluoromethyl)benzoyl)thioureido)-4,5,6,7-tetrahydrothieno[2,3-c]pyridine-3-carboxamide]
IC50 (PAK1 [1]; [7]): 10.2 ± 1.13 µM

Structure (SMILES): CC(C)(C)OC(=O)N1CCc2c(sc(NC(=O)c3ccccc3)c2C(N)=O)C1 [2169–1087]
Antiproliferatory activity in MDA-MB-231 cells at 50 μM (MDA-MB-231 cells [4]; 50 μM): no antiproliferatory activity | inhibition at 30 µM (PAK1 [1]; read-out: PAK1 inhibition rate at 30 μM): 78% | IC50 (PAK1 [1]; [7]): 23.5 µM

More lines, main results first:

IC50 (PAK1 [1]; [7]): 1.15 ± 0.97 µM | melting point: 166 to 169 °C
Structure (SMILES): CC(=O)N1CCc2c(sc(NC(=S)NC(=O)c3cccc(C(F)(F)F)c3)c2C(N)=O)C1 [Compound 7d, 6-acetyl-2–(3-(3-(trifluoromethyl)benzoyl)thioureido)-4,5,6,7-tetrahydrothieno[2,3-c]pyridine-3-carboxamide]

IC50 (MDA-MB-231 cells [4]; Homo sapiens, MDA-MB-231, 24 h, 24 h, read-out: MDA-MB-231 cell viability IC50, 24 h): 7.37 µM | IC50 (MDA-MB-231 cells [4]; Homo sapiens, MDA-MB-231, 48 h, 48 h, read-out: MDA-MB-231 cell proliferation IC50, 48 h): 4.67 µM | IC50 (MDA-MB-231 cells [4]; 48 h, read-out: MDA-MB-231 cell proliferation IC50, 48 h): 4.67 µM | Fold less PAK1 inhibitory activity in comparison to the standard FRAX597 (PAK1 [1]; 7j versus FRAX597): over 10 fold | IC50 (PAK1 [1]; [7]): 0.21 ± 0.05 µM | IC50 (PAK1 [1]; value given in nM in the text, read-out: PAK1 IC50): 0.209 µM | PAK1 expression (western blot) (PAK1 [5]; larger dose 10 μM): suppressed PAK1 expression | PAK1 expression (western blot) (PAK1 [5]; smaller dose 2.5 μM and 5 μM): did not affect PAK1 expression | Thermal stabilisation of PAK1 (CETSA) (PAK1 [6]): could stabilise PAK1
Structure (SMILES): NC(=O)c1c(NC(=S)NC(=O)c2cccc(C(F)(F)F)c2)sc2c1CCN(C(=O)C1CC1)C2 [Compound 7j, 6-(cyclopropanecarbonyl)-2–(3-(3-(trifluoromethyl)benzoyl)thioureido)-4,5,6,7-tetrahydrothieno[2,3-c]pyridine-3-carboxamide]
Cell cycle arrest (MDA-MB-231 cells [2]): induced obviously G2/M cell cycle arrest | Proliferation and colony formation ability of MDA-MB-231 cells (MDA-MB-231 cells [3]): obviously inhibited | JNK and c-Jun phosphorylation (MAPK-JNK pathway): decrease of JNK and c-Jun phosphorylation | Phosphorylation of PAK1 at Ser199 (PAK1 [5]; 2.5, 5, 10 μM): inhibited the phosphorylation of PAK1 at Ser199 | p-cdc2 Tyr15 expression (cdc25c/cdc2 pathway; 5 µM, 48 h immunofluorescence): obviously increased | Expression of cdc25c, cyclinB1, Pin1 and NEDD8 (cdc25c/cdc2 pathway; [8]): could decrease the expression | Phosphorylation of p-cdc2 at Tyr15 after PAK1 knockdown (cdc25c/cdc2 pathway; si-PAK1, 5 μM, 48 h): almost did not affect | p-ERK1/2 Thr202/Tyr204 expression and nucleus distribution (MAPK-ERK pathway; 5 µM, 48 h immunofluorescence): inhibited its expression and nucleus distribution | Phosphorylation of p-c-Raf, p-MEK1/2 and p-ERK1/2 (MAPK-ERK pathway; [8]): suppressed MAPK-ERK pathway

IC50 (PAK1 [1]; [7]): 1.09 ± 0.09 µM
Structure (SMILES): NC(=O)c1c(NC(=S)NC(=O)c2cccc(C(F)(F)F)c2)sc2c1CCN(C(=O)C1CCCC1)C2 [Compound 7l, 6-(cyclopentanecarbonyl)-2–(3-(3-(trifluoromethyl)benzoyl)thioureido)-4,5,6,7-tetrahydrothieno[2,3-c]pyridine-3-carboxamide]

IC50 (PAK1 [1]; [7]): 3.87 ± 0.35 µM
Structure (SMILES): CC(C)CC(=O)N1CCc2c(sc(NC(=S)NC(=O)c3cccc(C(F)(F)F)c3)c2C(N)=O)C1 [Compound 7f, 6–(3-methylbutanoyl)-2–(3-(3-(trifluoromethyl)benzoyl)thioureido)-4,5,6,7-tetrahydrothieno[2,3-c]pyridine-3-carboxamide]

IC50 (PAK1 [1]; [7]): 4.55 ± 0.51 µM
Structure (SMILES): NC(=O)c1c(NC(=S)NC(=O)c2cccc(C(F)(F)F)c2)sc2c1CCN(C(=O)C1CCCCC1)C2 [Compound 7m, 6-(cyclohexanecarbonyl)-2–(3-(3-(trifluoromethyl)benzoyl)thioureido)-4,5,6,7-tetrahydrothieno[2,3-c]pyridine-3-carboxamide]
